From patent US20090069319A1, “IMIDAZOPYRIDINE ANALOGS AND THEIR USE AS AGONISTS OF THE WNT-BETA-CATENIN CELLULAR MESSAGING SYSTEM” (Wyeth, priority 2007, published 2009)

Assays:
[1] = test system: canonical Wnt-β-catenin cellular messaging system (16xTCF-TK-FireFly-Luci reporter, Wnt3a and Dkk1 co-transfected U2OS cells); assay: Functional Dkk1-LRP5-TCF-Luciferase Assay in U2OS Cells (table columns: A=MAX FOLD Induction/DMSO CONTROL; B=fold induction @ 2.0 uM; C=fold induction @ 20.0 uM); type: cell-based, Human; settings: maximum fold induction over DMSO control
Summary of the method: (§1)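 U2OS cells co-transfected with 16×TCF-TK-firefly luciferase, TK-Renilla control, Wnt3a and Dkk1, then frozen; thawed cells (~5,000/well, ~5% FBS, phenol red-free RPMI) incubated ~20 h at 37° C. with compound (0.25% DMSO). Firefly luminescence (Bright-Glo) normalized to DMSO mean as fold induction.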

[2] = as above; type: cell-based, Human; settings: Homo sapiens, U2OS; for fold induction at 2 µM: 2.0 uM compound; for fold induction at 20 µM: 20.0 uM compound
Summary of the method: as §1

With `Oc1ccccc1-c1nc2cc(-c3ccc4ccccc4c3)cnc2n1C1CCNCC1` [2-[6-(2-naphthyl)-3-piperidin-4-yl-3H-imidazo[4,5-b]pyridin-2-yl]phenol] the “A = MAX FOLD Induction/DMSO CONTROL” value [1] was 1.380.
In the case of `Cc1nc[nH]c1-c1nc2cc(-c3ccc4ccccc4c3)cnc2n1C1CCNCC1` [2-(4-methyl-1H-imidazol-5-yl)-6-(2-naphthyl)-3-piperidin-4-yl-3H-imidazo[4,5-b]pyridine], the “A = MAX FOLD Induction/DMSO CONTROL” value [1] is reported as 1.870.
With `Clc1ccc(-c2nc3cc(-c4ccc5ccccc5c4)cnc3n2C2CCNCC2)cc1` [2-(4-chlorophenyl)-6-(2-naphthyl)-3-piperidin-4-yl-3H-imidazo[4,5-b]pyridine] the “A = MAX FOLD Induction/DMSO CONTROL” value [1] was 1.160.
In the case of `Cn1cccc1-c1nc2cc(-c3ccc4ccccc4c3)cnc2n1C1CCNCC1` [2-(1-methyl-1H-pyrrol-2-yl)-6-(2-naphthyl)-3-piperidin-4-yl-3H-imidazo[4,5-b]pyridine], the “A = MAX FOLD Induction/DMSO CONTROL” value [1] is reported as 2.470.
In the case of `c1ccc2cc(-c3cnc4c(c3)nc(-c3ccc5c(c3)OCCO5)n4C3CCNCC3)ccc2c1` [2-(2,3-dihydro-1,4-benzodioxin-6-yl)-6-(2-naphthyl)-3-piperidin-4-yl-3H-imidazo[4,5-b]pyridine], the “A = MAX FOLD Induction/DMSO CONTROL” value [1] is reported as 1.460.
With `C=Cc1cccc(-c2nc3cc(-c4ccc5ccccc5c4)cnc3n2C2CCNCC2)c1` [6-(2-naphthyl)-3-piperidin-4-yl-2-(3-vinylphenyl)-3H-imidazo[4,5-b]pyridine] the “A = MAX FOLD Induction/DMSO CONTROL” value [1] was 1.290.
For `FC(F)(F)c1ccccc1-c1nc2cc(-c3ccc4ccccc4c3)cnc2n1C1CCNCC1` [6-(2-naphthyl)-3-piperidin-4-yl-2-[2-(trifluoromethyl)phenyl]-3H-imidazo[4,5-b]pyridine], the “A = MAX FOLD Induction/DMSO CONTROL” value [1] was 1.360.
`CC(C)Cc1nc2c(-c3ccc4ccccc4c3)ccnc2n1C1CCNCC1` [2-isobutyl-7-(2-naphthyl)-3-piperidin-4-yl-3H-imidazo[4,5-b]pyridine] showed a fold induction at 2 µM [2] of 1.05.
For `Cn1ccnc1-c1nc2cc(-c3ccc4ccccc4c3)cnc2n1C1CCNCC1` [2-(1-methyl-1H-imidazol-2-yl)-6-(2-naphthyl)-3-piperidin-4-yl-3H-imidazo[4,5-b]pyridine], the “A = MAX FOLD Induction/DMSO CONTROL” value [1] was 2.720.
With `Oc1ccc(-c2nc3cc(-c4ccc5ccccc5c4)cnc3n2C2CCNCC2)cc1` [4-[6-(2-naphthyl)-3-piperidin-4-yl-3H-imidazo[4,5-b]pyridin-2-yl]phenol] the “A = MAX FOLD Induction/DMSO CONTROL” value [1] was 1.710.
`c1ccc2cc(-c3ccnc4c3nc(-c3cc5ccccc5s3)n4C3CCNCC3)ccc2c1` [2-(1-benzothien-2-yl)-7-(2-naphthyl)-3-piperidin-4-yl-3H-imidazo[4,5-b]pyridine] showed a fold induction at 2 µM [2] of 1.02.
Work on `Fc1ccccc1-c1nc2cc(-c3ccc4ccccc4c3)cnc2n1C1CCNCC1` [2-(2-fluorophenyl)-6-(2-naphthyl)-3-piperidin-4-yl-3H-imidazo[4,5-b]pyridine] yielded a fold induction at 2 µM [2] of 1.29.
Work on `FC(F)(F)c1ccccc1-c1nc2c(-c3ccc4ccccc4c3)ccnc2n1C1CCNCC1` [7-(2-naphthyl)-3-piperidin-4-yl-2-[2-(trifluoromethyl)phenyl]-3H-imidazo[4,5-b]pyridine] yielded a fold induction at 2 µM [2] of 1.72.
`Fc1cccc(F)c1-c1nc2c(-c3ccc4ccccc4c3)ccnc2n1C1CCNCC1` [2-(2,6-difluorophenyl)-7-(2-naphthyl)-3-piperidin-4-yl-3H-imidazo[4,5-b]pyridine] gave a fold induction at 2 µM [2] of 1.11.
Compound `Fc1ccc(-c2nc3c(-c4ccc5ccccc5c4)ccnc3n2C2CCNCC2)c(F)c1` [2-(2,4-difluorophenyl)-7-(2-naphthyl)-3-piperidin-4-yl-3H-imidazo[4,5-b]pyridine] has a fold induction at 2 µM [2] of 1.42.
For `Cc1nc2cc(-c3ccc4ccccc4c3)cnc2n1C1CCNCC1` [2-methyl-6-(2-naphthyl)-3-piperidin-4-yl-3H-imidazo[4,5-b]pyridine], the fold induction at 2 µM [2] was 1.06 and the fold induction at 20 µM [2] was 1.17.
`c1ccc2cc(-c3cnc4c(c3)nc(-c3ccncc3)n4C3CCNCC3)ccc2c1` [6-(2-naphthyl)-3-piperidin-4-yl-2-pyridin-4-yl-3H-imidazo[4,5-b]pyridine] gave a fold induction at 2 µM [2] of 1.56 and a fold induction at 20 µM [2] of 0.005.
Work on `COc1ccccc1-c1nc2cc(-c3ccc4ccccc4c3)cnc2n1C1CCNCC1` [2-(2-methoxyphenyl)-6-(2-naphthyl)-3-piperidin-4-yl-3H-imidazo[4,5-b]pyridine] yielded a fold induction at 2 µM [2] of 1.37 and a fold induction at 20 µM [2] of 0.01.
For `c1ccc(-c2nc3c(-c4ccc5ccccc5c4)ccnc3n2C2CCNCC2)cc1` [7-(2-naphthyl)-2-phenyl-3-piperidin-4-yl-3H-imidazo[4,5-b]pyridine], the fold induction at 2 µM [2] was 1.23 and the fold induction at 20 µM [2] was 0.05.
`Clc1ccc(-c2nc3c(-c4ccc5ccccc5c4)ccnc3n2C2CCNCC2)cc1` [2-(4-chlorophenyl)-7-(2-naphthyl)-3-piperidin-4-yl-3H-imidazo[4,5-b]pyridine] gave a fold induction at 2 µM [2] of 1.21.
Compound `Cn1c(-c2nc3c(-c4ccc5ccccc5c4)ccnc3n2C2CCNCC2)cc2ccccc21` [2-(1-methyl-1H-indol-2-yl)-7-(2-naphthyl)-3-piperidin-4-yl-3H-imidazo[4,5-b]pyridine] has a fold induction at 2 µM [2] of 1.17.
In the case of `O=C(NC1CCCCC1)N1CCC(n2cnc3c(-c4ccc5ccccc5c4)ccnc32)CC1` [N-cyclohexyl-4-[7-(2-naphthyl)-3H-imidazo[4,5-b]pyridin-3-yl]piperidine-1-carboxamide], the fold induction at 2 µM [2] is reported as 0.97 and the fold induction at 20 µM [2] is reported as 0.03.
In the case of `c1ccc2cc(-c3ccnc4c3nc(C3CCCC3)n4C3CCNCC3)ccc2c1` [2-cyclopentyl-7-(2-naphthyl)-3-piperidin-4-yl-3H-imidazo[4,5-b]pyridine], the fold induction at 2 µM [2] is reported as 1.46.
Work on `CCc1nc2cc(-c3ccc4ccccc4c3)cnc2n1C1CCNCC1` [2-ethyl-6-(2-naphthyl)-3-piperidin-4-yl-3H-imidazo[4,5-b]pyridine] yielded a fold induction at 2 µM [2] of 1.27 and a fold induction at 20 µM [2] of 0.78.
`Cc1ccc(-c2nc3c(-c4ccc5ccccc5c4)ccnc3n2C2CCNCC2)cc1` [2-(4-methylphenyl)-7-(2-naphthyl)-3-piperidin-4-yl-3H-imidazo[4,5-b]pyridine] gave a fold induction at 2 µM [2] of 1.9.
With `Cc1ccc(-c2nc3cc(-c4ccc5ccccc5c4)cnc3n2C2CCNCC2)c(C)c1` [2-(2,4-dimethylphenyl)-6-(2-naphthyl)-3-piperidin-4-yl-3H-imidazo[4,5-b]pyridine] the fold induction at 2 µM [2] was 1.31.
In the case of `c1coc(-c2nc3c(-c4ccc5ccccc5c4)ccnc3n2C2CCNCC2)c1` [2-(2-furyl)-7-(2-naphthyl)-3-piperidin-4-yl-3H-imidazo[4,5-b]pyridine], the fold induction at 2 µM [2] is reported as 1.82 and the fold induction at 20 µM [2] is reported as 0.01.
`CC(C)c1nc2cc(-c3ccc4ccccc4c3)cnc2n1C1CCNCC1` [2-isopropyl-6-(2-naphthyl)-3-piperidin-4-yl-3H-imidazo[4,5-b]pyridine] showed a fold induction at 2 µM [2] of 1.44.
With `c1ccc2cc(-c3ccnc4c3nc(-c3cccc5ccccc35)n4C3CCNCC3)ccc2c1` [2-(1-naphthyl)-7-(2-naphthyl)-3-piperidin-4-yl-3H-imidazo[4,5-b]pyridine] the fold induction at 2 µM [2] was 1.39.
`COc1cc(-c2nc3c(-c4ccc5ccccc5c4)ccnc3n2C2CCNCC2)ccc1O` [2-methoxy-4-[7-(2-naphthyl)-3-piperidin-4-yl-3H-imidazo[4,5-b]pyridin-2-yl]phenol] gave a fold induction at 2 µM [2] of 1.63 and a fold induction at 20 µM [2] of 0.01.
Compound `c1ccc2cc(-c3ccnc4c3nc(-c3cnc5ccccc5c3)n4C3CCNCC3)ccc2c1` [3-[7-(2-naphthyl)-3-piperidin-4-yl-3H-imidazo[4,5-b]pyridin-2-yl]quinoline] has a fold induction at 2 µM [2] of 1.44.
Work on `Fc1ccc(-c2nc3cc(-c4ccc5ccccc5c4)cnc3n2C2CCNCC2)c(F)c1` [2-(2,4-difluorophenyl)-6-(2-naphthyl)-3-piperidin-4-yl-3H-imidazo[4,5-b]pyridine] yielded a fold induction at 2 µM [2] of 1.22.
Work on `c1ccc2cc(-c3ccnc4c3nc(-c3csc5ccccc35)n4C3CCNCC3)ccc2c1` [2-(1-benzothien-3-yl)-7-(2-naphthyl)-3-piperidin-4-yl-3H-imidazo[4,5-b]pyridine] yielded a fold induction at 2 µM [2] of 1.28.
With `c1ccc2cc(-c3cnc4c(c3)nc(-c3cccc5ncccc35)n4C3CCNCC3)ccc2c1` [5-[6-(2-naphthyl)-3-piperidin-4-yl-3H-imidazo[4,5-b]pyridin-2-yl]quinoline] the fold induction at 2 µM [2] was 1.29.
In the case of `Oc1cccc(-c2nc3cc(-c4ccc5ccccc5c4)cnc3n2C2CCNCC2)c1O` [3-[6-(2-naphthyl)-3-piperidin-4-yl-3H-imidazo[4,5-b]pyridin-2-yl]benzene-1,2-diol], the “A = MAX FOLD Induction/DMSO CONTROL” value [1] is reported as 1.430.
`c1ccc(Oc2cccc(-c3nc4c(-c5ccc6ccccc6c5)ccnc4n3C3CCNCC3)c2)cc1` [7-(2-naphthyl)-2-(3-phenoxyphenyl)-3-piperidin-4-yl-3H-imidazo[4,5-b]pyridine] showed a fold induction at 2 µM [2] of 1.4.
In the case of `Cc1ccc(CCn2cnc3c(-c4ccc5ccccc5c4)ccnc32)cc1` [3-[2-(4-methylphenyl)ethyl]-7-(2-naphthyl)-3H-imidazo[4,5-b]pyridine], the fold induction at 2 µM [2] is reported as 0.76 and the fold induction at 20 µM [2] is reported as 0.98.
Work on `c1ccc2cc(-c3ccnc4c3nc(-c3cccc5ncccc35)n4C3CCNCC3)ccc2c1` [5-[7-(2-naphthyl)-3-piperidin-4-yl-3H-imidazo[4,5-b]pyridin-2-yl]quinoline] yielded a fold induction at 2 µM [2] of 1.33.
For `CC(C)NC(=O)N1CCC(n2c(=O)n(C)c3c(-c4ccc5ccccc5c4)ccnc32)CC1` [N-isopropyl-4-[1-methyl-7-(2-naphthyl)-2-oxo-1,2-dihydro-3H-imidazo[4,5-b]pyridin-3-yl]piperidine-1-carboxamide], the fold induction at 2 µM [2] was 1.07 and the fold induction at 20 µM [2] was 0.26.
Compound `Cc1nc(-c2nc3c(-c4ccc5ccccc5c4)ccnc3n2C2CCNCC2)c[nH]1` [2-(2-methyl-1H-imidazol-4-yl)-7-(2-naphthyl)-3-piperidin-4-yl-3H-imidazo[4,5-b]pyridine] has a fold induction at 2 µM [2] of 1.04 and a fold induction at 20 µM [2] of 0.02.
